EP0092121A1, “Methods and compositions for treating gastro-intestinal ulcer diesease” (BOARD OF REGENTS THE UNIVERSITY OF TEXAS SYSTEM, priority 1982, dated 1983)

System: acute pylorus-ligated rat preparation
Test: In vivo protection against acid-induced gastric damage in HCl-challenged rats (gross examination, gastric hemoglobin)
Conditions: individual phospholipid, gastric sample hemoglobin after 0.6 N HCl
Protocol: Applicants directly investigated this question in an acute pylorus-ligated rat preparation, in which test agents could be administered directly into the stomach by way of an esophageal cannula. Rats were fasted overnight and maintained under Nembutal anesthesia throughout the study period. The rats were divided into two groups (3 rats/grp); one group which was designated "surfactant treated" received 0.5 ml of a liposomal suspension in saline of the following phospholipids: […], 15 µg of DPPE, DPPG, DPPI and Sphingomyelin; and the second group (controls) was intragastrically injected with 0.5 ml of saline. Five minutes later both groups received 1 ml of an ulcerogenic dose of 0.6 N HCI. The anesthetized animals were left undisturbed for 45 minutes, after which they were sacrificed, and the stomachs excised, opened along the greater curvature and examined.
In another series of in vivo experiments, the individual phospholipids: dipalmitoyl lecithin, dipalmitoyl phosphatidyl ethanolamine, and phosphatidyl choline were tested for anti-ulcer activity. The experiments were performed as described above. In addition, immediately before the rat was sacrificed, a gastric sample was withdrawn for hemoglobin analysis. […] Sample anti-ulcer activity was measured as a percent of hemoglobin count relative to hemoglobin detected from animals pretreated with the combination of 135 µg DPL, 15 µg of DPPE, DPPG, DPPI and sphingomyelin mixture.
Anti-ulcer activity was inversely proportional,to the amount of hemoglobin detected. Table I tabulates the relative anti-ulcer activity of the individually tested phospholipids.

Compound | ACTIVITY (anti-ulcer activity, hemoglobin count relative to mixture) (15 µg) | ACTIVITY (anti-ulcer activity, hemoglobin count relative to mixture) (135 µg) [%]
CCCCCCCCCCCCCCCC(=O)OCC(COP(=O)([O-])OCC[N+](C)(C)C)OC(=O)CCCCCCCCCCCCCCC (stereo not drawn) [Dipalmitoyl lecithin, dipalmitoyl lecithin] | 95% | 90
CCCCCCCCCCCCCCCC(=O)OCC(COP(=O)(O)OCCN)OC(=O)CCCCCCCCCCCCCCC (stereo not drawn) [Dipalmitoyl phosphatidyl ethanolamine, dipalmitoyl phosphatidyl ethanolamine] | 75-80% | 70
phosphatidylcholine [Phosphatidyl choline] | 80% | 80
